Measured values from paper PMC3337333 (Bioorganic & medicinal chemistry letters, 2012).

Key:
[1] = molecular target: Hsp90-TPR protein complexes; details: C-terminal binder; ref [21]; cited from earlier work
[2] = tested on: apoptosis; details: ref [4]; cited from earlier work
[3] = tested on: Hsp90 in HCT 116 cells; experiment: Immunofluorescence staining of Hsp90 in treated colon cancer cells; format: cell-based; details: 17-AAG 24 hours 200 nM, compound 3 and compound 4 72 hours 5 µM, polyclonal antibody to Hsp90

For `CO[C@@H]1[C@@H](OC(N)=O)[C@@H](O)[C@H](Oc2ccc3c(O)c(NC(=O)c4ccc(O)c(CC=C(C)C)c4)c(=O)oc3c2C)OC1(C)C` [novobiocin], the “IC50, inhibition of binding between Hsp90 and four TPR-containing co-chaperones” value [1] is given as “millimolar range”.
In the case of Sansalvamide A-amide [compound 1], the induction of apoptosis [2] is listed as “induce apoptosis”.
In the case of `C=CCNC1=C2C[C@@H](C)C[C@H](OC)[C@H](O)[C@@H](C)/C=C(\C)[C@H](OC(N)=O)[C@@H](OC)/C=C\C=C(/C)C(=O)NC(=CC1=O)C2=O` [17-AAG, 17-(allylamino)-17-demethoxygeldanamycin], the “Hsp90 staining in cytosol versus DMSO control” value [3] is reported as “intensify in brightness”.
